Data: patent publication US20110165183A1, “PIPERIDINE DERIVATIVES AS JAK3 INHIBITORS” (BioCryst Pharmaceuticals, Inc., priority 2008, published 2011)

melting point	SMILES
72 °C	C[C@@H]1CCN(C(=O)CC#N)C[C@@H]1N(C)c1ncnn2ccnc12 [Example 4, 3-((3R,4R)-3-(Imidazo[1,2-f][1,2,4]triazin-4-yl(methyl)amino)-4-methylpiperidin-1-yl)-3-oxopropanenitrile]
103.4 °C	C[C@@H]1CCN(c2ncnn3cccc23)C[C@@H]1N(C)c1ncnn2cccc12 [Example 17, N-Methyl-N-((3R,4R)-4-methyl-1-(pyrrolo[1,2-f][1,2,4]triazin-4-yl)piperidin-3-yl)pyrrolo[1,2-f][1,2,4]triazin-4-amine]
119.3 °C	Cc1cc(N(C)[C@H]2CN(C(=O)CC#N)CC[C@H]2C)n2ncnc2n1 [Example 8, 3-((3R,4R)-4-Methyl-3-(methyl(5-methyl-1,2,41-triazolo[1,5-a]pyrimidin-7-yl)amino)piperidin-1-yl)-3-oxopropanenitrile]
74.3 °C	C[C@@H]1CCN(C(=O)CC#N)C[C@@H]1N(C)c1ncnc2sccc12 [Example 9, 3-((3R,4R)-4-methyl-3-(methyl(thieno[2,3-d]pyrimidin-4-yl)amino)piperidin-1-yl)-3-oxopropanenitrile]
107.7 °C	C[C@@H]1CCN(C(=O)CC#N)C[C@@H]1N(C)c1ncnc2ccoc12 [Example 2, 3-((3R,4R)-3-(furo[3,2-d]pyrimidin-4-yl(methyl)amino)-4-methylpiperidin-1-yl)-3-oxopropanenitrile]
126.9 °C	C[C@@H]1CCNC[C@@H]1N(C)c1nccc2[nH]ccc12 [Example 18, N-Methyl-N-((3R,4R)-4-methylpiperidin-3-yl)-1H-pyrrolo[3,2-c]pyridin-4-amine]
